Assays:
Format in all cases: cell-based, human
[1] = tested on: MM cell lines MM1.S, MM1.R, RPMI-8226 (RPMI) and U266; experiment: Cell viability of MM cell lines (MTT / WST-8 assay); settings: 18 h; for cell viability of all MM cell lines tested as compared to untreated control cells: WIN-55 0.5-50 uM, JWH-133 0.05-1 mM
Source text: (§1) Human multiple myeloma cell lines MM1.S, MM1.R, RPMI-8226 (RPMI) and U266 were purchased from American Type Culture Collection [(ATCC), LGC Standards, Manassas, USA]. Human primary cells were obtained from MM patients' bone marrow (BM) and healthy donors' peripheral blood (PB). PB samples were collected from buffy coats and leukapheresis products, previously mobilized with granulocyte colony stimulating factor (G-CSF). Hematopoietic progenitor cells (CD34+) were isolated from leukaphesesis samples, and B (CD19+) and T (CD3+) lymphocytes from buffy coats by positive immunomagnetic separation in the AutoMACS pro separator (Miltenyi Biotec, Bergisch Gladbach, Germany). For this purpose CD34-, CD19- and CD3-MACS microbead Human Kit (Miltenyi Biotec, Bergisch Gladbach, Germany). The purity of all isolated cells was higher than 95% in all cases. BM samples were obtained from five MM patients. In all cases, BM plasma cell infiltration was greater than 30%. The different cell subpopuplations from MM patients BM were not separated, but they were identified by flow cytometry using a suitable combination of antibodies: anti-CD64-FITC, anti-CD34-PE, anti-CD56-APC, anti-CD38-APC-H7, and anti-CD45-Pacific Blue (BD Biosciences, San Jose, Calif.).
Except if otherwise indicated, for the viability assays primary cells were incubated 18 hours, with vehicle (with <0.15% DMSO) or cannabinoid. Meanwhile, the time course assays cells were performed at 0, 2, 6, 18 and 24 h. For the analysis of SPT activity, cells were co-incubated for the first 6 hours with the SPT inhibitor, myriocin, and the cannabinoid, WIN-55 or JWH-133.
The working concentrations of cannabinoids were determined by dose-response curves (data not shown) and selected within the linear range between observed safe and hazardous levels. […]
Cell viability of cell lines and CD34+, CD19+ and CD3+ cells was measured using the Cell Counting Kit-8 (Dojindo Molecular Technologies, Gaithersburg, Md.). This assay is based on the reduction of salt WST-8 by a mitochondrial dehydrogenase in viable cells, resulting in a colored formazan product that can be measured spectrometrically at 450 nm. […] After treatment, 10 ul salt WST-8 [2-(4-lodophenyl)-3-(4-nitrophenyl)-5-(2,4-disulfophenyl)-2H-tetrazolium] was added to each well and incubated for an additional 2 h at 37° C., and then the absorbance of generated formazan was measured in a plate reader Multiskan™ Go Microplate (Thermo Fisher Scientific, Waltham, Mass., USA).
Firstly, we assessed the effect of cannabinoids WIN-55 and JWH-133 on cell viability. To this end, the cells were treated with increasing concentrations of cannabinoids, WIN-55 (0.5-50 uM) and JWH-133 (0.05-1 mM), for 18, 48 and 96 hours, and viability was analyzed by MTT assays and flow cytometry. […]

[2] = tested on: myeloma plasma cells (MPCs); experiment: Ex vivo viability of myeloma plasma cells from bone marrow of MM patients (flow cytometry, 7-AAD)
Source text: as §1, with “BM samples were obtained from five MM patients. In all cases, BM plasma cell infiltration was greater than 30%. The different cell subpopuplations from MM patients BM were not separated, but they were identified by flow cytometry using a suitable combination of antibodies: anti-CD64-FITC, anti-CD34-PE, anti-CD56-APC, anti-CD38-APC-H7, and anti-CD45-Pacific Blue (BD Biosciences, San Jose, Calif.).” left out
Further, cell viability of bone marrow cell populations from patients was assessed by flow cytometry using 7-amino-actinomycin D [(7-AAD), BD Biosciences] together with a combination of monoclonal antibodies against myeloma-associated antigens (anti-CD56-APC, anti-CD45-Pacific Blue, and anti-CD38-APC-H7 [BD Biosciences]) and antibodies to discriminate the granulomonocytic (anti-CD64-FITC) and lymphocytic (anti-CD45-Pacific Blue) populations. […] Fluorescent intensity was quantified and analyzed using Infinicyt™ Software (Cytognos, Salamanca, Spain). […]

lymphocytes = experiment: Viability of normal residual lymphocytes in bone marrow samples of MM patients (flow cytometry); settings: for viability of lymphocytes: all doses except the highest dose tested; for dose at which lymphocytes were affected (highest dose tested): bone marrow of MM patients
Source text: as §1
Further, cell viability of bone marrow cell populations from patients was assessed by flow cytometry using 7-amino-actinomycin D [(7-AAD), BD Biosciences] together with a combination of monoclonal antibodies against myeloma-associated antigens (anti-CD56-APC, anti-CD45-Pacific Blue, and anti-CD38-APC-H7 [BD Biosciences]) and antibodies to discriminate the granulomonocytic (anti-CD64-FITC) and lymphocytic (anti-CD45-Pacific Blue) populations. Cells were incubated for 15 minutes at room temperature in the dark with suitable antibodies and 7-AAD, and after washing a total of 100 000 cells were acquired on FACSCanto II flow cytometer (BD Biosciences). Fluorescent intensity was quantified and analyzed using Infinicyt™ Software (Cytognos, Salamanca, Spain). Additionally, cell viability of MM cell lines and the peripheral blood CD34+, CD3+ and CD19+ cell populations from healthy donors was also analyzed by flow cytometry using 7-AAD, with the same protocol above described.
Once determined the antiproliferative effect of cannabinoids on tumor cells, both primary and cell lines, our aim was to test whether or not these drugs could also affect the viability of the counterpart normal cells, both normal residual populations from bone marrow samples obtained from MM patients as well as hematopoietic stem cells (CD34+) from healthy donors. […] Granulocytes and lymphocytes, were also unaffected by both cannabinoids, except for the lymphocytes at the highest doses tested, 50 uM for WIN-55 and 1 mM for JWH-133 (FIG. 2a,b).

blasts from AML patients = experiment: Cell viability of blasts from AML patients (MTT)
[3] = tested on: CD34+ hematopoietic stem cells; experiment: Cell viability of CD34+ hematopoietic stem cells, Example 2 (MTT)
Source text: Human primary cells were obtained from LMA patients' bone marrow (BM) and healthy donors' peripheral blood (PB). Hematopoietic progenitor cells (CD34+) were isolated from leukaphesesis samples, and B (CD19+) and T (CD3+) lymphocytes from buffy coats by positive immunomagnetic separation in the AutoMACS pro separator (Miltenyi Biotec, Bergisch Gladbach, Germany). For this purpose CD34-, CD19- and CD3-MACS microbead Human Kit (Miltenyi Biotec, Bergisch Gladbach, Germany).
Cells lines, CD34+ cells and blast were cultured in 96-well plates (5×10e5 cells per well) with the addition of the indicated concentrations of WIN 55,212-2 or JWH-133 in DMSO or with the solvent alone in triplicate. Also we add myoricin together the cannabinoid WIN-55 to see if this effect reversed. Cell viability was determined by the WST-1 [2-(4-lodophenyl)-3-(4-nitrophenyl)-5-(2,4-disulfophenyl)-2H-tetrazolium] assay as per the manufacturer's instructions (Dojindo Molecular Technologies). Optical densities were measured at 450 nm using a plate reader Multiskan™ Go Microplate (Thermo Fisher Scientific, Waltham, Mass., USA).
Stem cells were treated with WIN-55 or JWH-133 and cell viability was analyzed using MTT assay.

Structure (SMILES) | sensitivity pattern of the MM cell lines [1] | cell viability of all MM cell lines tested as compared to untreated control cells [1] | viability of MPCs ([2]; less pronounced as compared to WIN-55) | viability of lymphocytes (lymphocytes) | dose at which lymphocytes were affected (highest dose tested) (lymphocytes) | cell viability of blasts from AML patients (blasts from AML patients) | cell viability of CD34+ hematopoietic stem cells [3] | decrease in cell viability of MPCs as compared to control (vehicle-treated) cells ([2]; 50 uM, bone marrow of MM patients)
CCCC(C)(C)c1ccc2c(c1)OC(C)(C)[C@@H]1CC=C(C)C[C@@H]21 [JWH-133, (6aR,10aR)-3-(1,1-Dimethylbutyl)-6a,7,10,10a-tetrahydro-6,6,9-trimethyl-6H-dibenzo [b,d] pyran] | decreasing from MM1.R, RPMI, MM1.S to U266 | significantly reduced | decreased viability | unaffected | 1 mM | reduce the cell viability | remains unaffected | 
CS(=O)(=O)O.Cc1c(C(=O)c2cccc3ccccc23)c2cccc3c2n1[C@H](CN1CCOCC1)CO3 [WIN-55, (R)-(+)-[2,3-dihydro-5-methyl-3-(4-morpholinylmethyl)-pyrrolo-[1,2,3]-1,4-benzoxazin-6-yl]-1-naphthalenylmethanone mesylate] | MM1R and RPMI were the most sensitive | significantly reduced |  | unaffected | 0.05 mM | reduce the cell viability | remains unaffected | up to 85%
